Where no end group is shown, it is not given here.
Key:
[1] = test system: truncated proteins from the extracellular domain of BAK1; test: Yeast two-hybrid with truncated BAK1-ECD; assay type: binding, Arabidopsis thaliana
From the text: Fig 6 AtRALF1 interacts physically with BAK1 protein. (A) The active AtRALF1 peptide interacts with the extracellular domain (ECD) of BAK1 (BAK1-ECD) in yeast. The AtRALF1 protein fused to the GAL4 DNA-binding domain (AtRALF1-pGBKT7) was used as bait to test its interaction with the extracellular domain of the proteins fused to the GAL4 activation domain (pGADT7): BAK1 (BAK1-ECD), BAK7 (BAK7-ECD), BRI1 (BRI1-ECD) and FLS2 (FLS2-ECD). (B) Blueprint showing the truncated proteins from the extracellular domain of BAK1 tested in the two-hybrid assay. The extracellular domain of BAK1 comprises leucine zippers (LZ), 5 leucine rich-regions (LRRs) and a proline-rich region (pro-rich). (C) AtRALF1-pGBKT7 was used as bait to test its interaction with truncated proteins fused to the GAL4 activation domain (pGADT7). The transformed yeast cells in (A) and (C) were selected on a synthetic complete medium lacking leucine, tryptophan and histidine to test interactions. (D, E) Co-immunoprecipitation (Co-IP) in vitro between the extracellular domain of BAK1 (HA-BAK1-ECD) and AtRALF1 recombinant purified proteins. HA-BAK1-ECD was detected with an anti-HA antibody. AtRALF1 was detected with an anti-RALF antibody. (F) Recombinant AtRALF1 is co-immunoprecipitated with the BAK1-GFP protein expressed in tobacco. BAK1-GFP was detected with an anti-GFP antibody. […] (G) Isothermal titration calorimetry (ITC) of the extracellular domain of BAK1 (BAK1-ECD) vs. AtRALF1 in ITC buffer (15 mM HEPES, pH 6.8). ITC experiments were simulated using 28 injections of BAK1-ED (0.7 mM, vol 10 μL) on AtRALF1 (0.03 mM vol cell = 1.4 mL) at 25°C. […]
(§1) The coding regions of the mature peptides AtRALF1 and AtRALF34 were amplified from Arabidopsis genomic DNA and fused to the GAL4 DNA-binding domain and the MYC epitope tag using the NdeI/BamHI sites in the pGBKT7 (Clontech) vector. […] The proteins fused to the HA and MYC epitope tags were detected by protein blotting. […]
Supplementary file pgen.1007053.s012.pdf: S12 Fig Analyses of protein extracts from yeast. […] The proteins were monitored using an anti-HA antibody. […]

[2] = test system: Arabidopsis seedlings, primary root; conditions: wild-type Arabidopsis; ref [5]; cited from earlier work
Description: To better understand the role of AtRALF1 and BRs in regulating cell expansion, we exposed different mutants and transgenic Arabidopsis plants with altered BR signaling pathways to the peptide hormone AtRALF1 at concentrations that inhibit root growth. Loss-of-function mutants (bri1-301, bsk3-2 and bak1-4), gain-of-function mutants (sud1, bes1-D and bzr1-D) and two overexpressor lines (BRI OX and DWF4 OX) were used in the root growth assays in the presence or absence of 10 μM AtRALF1 (Fig 1A).

FLS2 (FLS2-ECD) = test: Yeast two-hybrid with FLS2-ECD; assay type: binding, Arabidopsis thaliana; conditions: yeast AH109, medium lacking Leu, Trp, His
From the text: Fig 6 AtRALF1 interacts physically with BAK1 protein. (A) The active AtRALF1 peptide interacts with the extracellular domain (ECD) of BAK1 (BAK1-ECD) in yeast. The AtRALF1 protein fused to the GAL4 DNA-binding domain (AtRALF1-pGBKT7) was used as bait to test its interaction with the extracellular domain of the proteins fused to the GAL4 activation domain (pGADT7): BAK1 (BAK1-ECD), BAK7 (BAK7-ECD), BRI1 (BRI1-ECD) and FLS2 (FLS2-ECD). (B) Blueprint showing the truncated proteins from the extracellular domain of BAK1 tested in the two-hybrid assay. The extracellular domain of BAK1 comprises leucine zippers (LZ), 5 leucine rich-regions (LRRs) and a proline-rich region (pro-rich). (C) AtRALF1-pGBKT7 was used as bait to test its interaction with truncated proteins fused to the GAL4 activation domain (pGADT7). […] HA-BAK1-ECD was detected with an anti-HA antibody. AtRALF1 was detected with an anti-RALF antibody. […] BAK1-GFP was detected with an anti-GFP antibody. […]
as §1

BAK1 = BAK1 phosphorylation assay, anti-phosphothreonine; assay type: in vivo, Arabidopsis thaliana; conditions: 20 min
Description: Transgenic plants pBAK1:BAK1-6xHA were grown in vertical plates for 10–15 days. The plants were treated with 0.1 μM BL, 2 μM RALF1(9–49), 1 μM, 2 μM or 10 μM AtRALF1 for 20 min. The roots were isolated, and the microsomal fractions were obtained as described above. The microsomal fractions were incubated with anti-HA beads (EZview Red Anti-HA Affinity Gel, Sigma) for 2 h at 4 °C to immunoprecipitate the BAK1 protein. The unbound materials were removed by washing 3 times. Proteins were separated by SDS/PAGE and further analyzed by protein blotting using anti-HA (Thermo Scientific), or anti-phosphothreonine (Novus Biologicals), or anti-phosphoserine (Novus Biologicals) antibodies.

[3] = test system: AtPRP3, AtHRGP2, CPD and DWF4 genes; conditions: cited from earlier work
From the text: AtRALF1-overexpressing plants are less sensitive to exogenous brassinosteroids (BRs). […] AtRALF1 also induces two cytochrome P450 monooxygenase genes related to the BR biosynthetic pathway: Constitutive Photomorphism and Dwarfism (CPD) and DWARF4 (DWF4). We exposed the bak1 mutants to the same concentration of AtRALF1 and evaluated the capacity to induce the AtPRP3, AtHRGP2, CPD and DWF4 genes. None of the AtRALF1-inducible genes were ...

cell suspensions = conditions: cited from earlier work

AtRALF1: root-specific RALF isoform in Arabidopsis; recombinant peptide hormone produced in E. coli (ATTKYISYQSLKRNSVPCSRRGASYYNCQNGAQANPYSRGCSKIARCRS; ends and bridges not checked; cysteine pairing not given here)
interaction with truncated BAK1-ECD ([1]; 12 truncated proteins): only two that interacted with AtRALF1: Leu zippers + LRR1 + LRR2 + LRR3 and Leu zippers + LRR1 + LRR2 | interaction with BAK1-ECD lacking Pro-rich region and LRR5 ([1]; C-terminal deletion): abolished the interaction | interaction with N-terminal deletions of BAK1-ECD ([1]; deletions from N-terminal): None of the deletions from N-terminal were able to interact with AtRALF1 | primary root growth inhibition [2]: inhibits the primary root growth of wild-type Arabidopsis plants | interaction with FLS2-ECD (Y2H complementation) (FLS2 (FLS2-ECD)): able to complement only the BAK1-ECD construct | further increase of BAK1 Thr phosphorylation (BAK1; 10 μM): did not result in further increases in phosphorylation | upper concentration of dose-dependent BAK1 Thr phosphorylation (BAK1; pBAK1:BAK1-HA roots): up to 2 μM | BAK1 phosphorylation in threonine residues (BAK1; pBAK1:BAK1-HA roots, AtRALF1 1, 2, 10 μM, BL 0.1 μM): increase in BAK1 phosphorylation in the threonine residues similar to the increase resulting from the treatment of the seedlings with BL | induction of AtPRP3 and AtHRGP2 genes ([3]; Arabidopsis seedling roots, ref [9]): induces, in a dose-dependent manner | induction of CPD and DWF4 genes ([3]; ref [9]): induces | AtEXPA5 expression ([3]; roots of treated seedlings, ref [16]–[18]): repressed in the roots of AtRALF1-treated seedlings | alkalinization of the extracellular media (cell suspensions; ref [1],[11]): induces a rapid alkalinization of the extracellular media of cell suspensions | alkalinization of the extracellular medium (cell suspensions; ref [5]): alkalinizes the extracellular medium of cell suspensions

From PMC5656322, “BAK1 is involved in AtRALF1-induced inhibition of root cell expansion” (PLoS Genetics, 2017)
